Tests used:
[1] = test system: Escherichia coli; experiment: Antimicrobial activity against clinical isolate Escherichia coli CCM 4517 after 48 hrs; type: functional; conditions: CCM 4517, 48 h
[2] = test system: Staphylococcus epidermidis; experiment: Antimicrobial activity against clinical isolate Staphylococcus epidermidis H 696608 after 48 hrs; type: functional; conditions: H 696608, 48 h
[3] = test system: Aspergillus fumigatus; experiment: Antimicrobial activity against Aspergillus fumigatus 231 after 24 hrs by spectrophotometry; type: functional; conditions: Aspergillus fumigatus, 231, 24 h
[4] = test system: Lichtheimia corymbifera; experiment: Antimicrobial activity against Absidia corymbifera 272 after 24 hrs by spectrophotometry; type: functional; conditions: Lichtheimia corymbifera, 272, 24 h
[5] = test system: Staphylococcus epidermidis; experiment: Antimicrobial activity against clinical isolate Staphylococcus epidermidis H 696608 after 24 hrs; type: functional; conditions: H 696608, 24 h
[6] = test system: Candida albicans; experiment: Antimicrobial activity against Candida albicans ATCC 44859 after 24 hrs by spectrophotometry; type: functional; conditions: ATCC 44859, 24 h
[7] = test system: Lichtheimia corymbifera; experiment: Antimicrobial activity against Absidia corymbifera 272 after 48 hrs by spectrophotometry; type: functional; conditions: Lichtheimia corymbifera, 272, 48 h
[8] = test system: Klebsiella pneumoniae; experiment: Antimicrobial activity against clinical isolate ESBL-Klebsiella pneumoniae J 1436808 after 24 hrs; type: functional; conditions: J 1436808, 24 h
[9] = test system: Escherichia coli; experiment: Antimicrobial activity against clinical isolate Escherichia coli CCM 4517 after 24 hrs; type: functional; conditions: CCM 4517, 24 h
[10] = test system: Nakaseomyces glabratus; experiment: Antimicrobial activity against Candida glabrata 20/I after 24 hrs by spectrophotometry; type: functional
[11] = test system: Nakaseomyces glabratus; experiment: Antimicrobial activity against Candida glabrata 20/I after 48 hrs by spectrophotometry; type: functional
[12] = test system: Candida tropicalis; experiment: Antimicrobial activity against Candida tropicalis 156 after 48 hrs by spectrophotometry; type: functional; conditions: Candida tropicalis, 156, 48 h
[13] = test system: Staphylococcus aureus; experiment: Antimicrobial activity against clinical isolate Staphylococcus aureus CCM 451608 after 48 hrs; type: functional; conditions: CCM 451608, 48 h
[14] = test system: Pichia kudriavzevii; experiment: Antimicrobial activity against Candida krusei E28 after 24 hrs by spectrophotometry; type: functional; conditions: E28, 24 h
[15] = test system: Klebsiella pneumoniae; experiment: Antimicrobial activity against clinical isolate Klebsiella pneumoniae D 1175008 after 48 hrs; type: functional; conditions: D 1175008, 48 h
[16] = test system: Pichia kudriavzevii; experiment: Antimicrobial activity against Candida krusei E28 after 48 hrs by spectrophotometry; type: functional; conditions: E28, 48 h
[17] = test system: Enterococcus sp.; experiment: Antimicrobial activity against clinical isolate Enterococcus sp. J 1436508 after 24 hrs; type: functional; conditions: J 1436508, 24 h
[18] = test system: Enterococcus sp.; experiment: Antimicrobial activity against clinical isolate Enterococcus sp. J 1436508 after 48 hrs; type: functional; conditions: J 1436508, 48 h
[19] = test system: Trichosporon asahii; experiment: Antimicrobial activity against Trichosporon asahii 1188 after 48 hrs by spectrophotometry; type: functional; conditions: Trichosporon asahii, 1188, 48 h
[20] = test system: Trichophyton mentagrophytes; experiment: Antimicrobial activity against Trichophyton mentagrophytes 445 after 72 hrs by spectrophotometry; type: functional; conditions: Trichophyton mentagrophytes, 445, 72 h
[21] = test system: Klebsiella pneumoniae; experiment: Antimicrobial activity against clinical isolate ESBL-Klebsiella pneumoniae J 1436808 after 48 hrs; type: functional; conditions: J 1436808, 48 h
[22] = test system: Staphylococcus aureus; experiment: Antimicrobial activity against clinical isolate methicillin-resistant Staphylococcus aureus H 599608 after 24 hrs; type: functional; conditions: H 599608, 24 h
[23] = test system: Trichosporon asahii; experiment: Antimicrobial activity against Trichosporon asahii 1188 after 24 hrs by spectrophotometry; type: functional; conditions: Trichosporon asahii, 1188, 24 h
[24] = test system: Staphylococcus aureus; experiment: Antimicrobial activity against clinical isolate Staphylococcus aureus CCM 451608 after 24 hrs; type: functional; conditions: CCM 451608, 24 h
[25] = test system: Candida tropicalis; experiment: Antimicrobial activity against Candida tropicalis 156 after 24 hrs by spectrophotometry; type: functional; conditions: Candida tropicalis, 156, 24 h
[26] = test system: Candida albicans; experiment: Antimicrobial activity against Candida albicans ATCC 44859 after 48 hrs by spectrophotometry; type: functional; conditions: ATCC 44859, 48 h
[27] = test system: Pseudomonas aeruginosa; experiment: Antimicrobial activity against clinical isolate Pseudomonas aeruginosa CCM 1961 after 120 hrs; type: functional; conditions: CCM 1961, 120 h
[28] = test system: Staphylococcus aureus; experiment: Antimicrobial activity against clinical isolate methicillin-resistant Staphylococcus aureus H 599608 after 48 hrs; type: functional; conditions: H 599608, 48 h
[29] = test system: Trichophyton mentagrophytes; experiment: Antimicrobial activity against Trichophyton mentagrophytes 445 after 120 hrs by spectrophotometry; type: functional; conditions: Trichophyton mentagrophytes, 445, 120 h
[30] = test system: Pseudomonas aeruginosa; experiment: Antimicrobial activity against clinical isolate Pseudomonas aeruginosa CCM 1961 after 72 hrs; type: functional; conditions: CCM 1961, 72 h
[31] = Cytotoxicity against CHOK1 cells after 24 hrs by MTT assay; type: cell-based; conditions: Cricetulus griseus, CHO-K1, 24 h
[32] = test system: Aspergillus fumigatus; experiment: Antimicrobial activity against Aspergillus fumigatus 231 after 48 hrs by spectrophotometry; type: functional; conditions: Aspergillus fumigatus, 231, 48 h
[33] = test system: Klebsiella pneumoniae; experiment: Antimicrobial activity against clinical isolate Klebsiella pneumoniae D 1175008 after 24 hrs; type: functional; conditions: D 1175008, 24 h

CCCCCCCCCCCC[N+](C)(C)Cc1ccccc1
2 µM: MBC [1] | MIC [1] | MBC [13] | MIC [13] | MFC [19] | MIC [19] | MFC [29]
7.8 µM: MIC [4] | MFC [7] | MIC [7] | MBC [27]
0.5 µM: MBC [2] | MIC [2] | MIC [5] | MIC [6] | MIC [9] | MIC [10] | MFC [11] | MIC [11] | MIC [12] | MIC [14] | MBC [15] | MIC [15] | MFC [16] | MIC [16] | MIC [17] | MIC [22] | MIC [23] | MIC [24] | MIC [25] | MIC [26] | MIC [28] | MIC [33]
3.9 µM: MIC [27] | MIC [30] | MFC [32] | MIC [32]
29 µM: IC50 [31]
1 µM: MIC [3] | MIC [8] | MFC [12] | MBC [18] | MIC [18] | MIC [20] | MBC [21] | MIC [21] | MFC [26] | MBC [28] | MIC [29]

CCCCCCCCCCCCCCCCCC[n+]1ccc2ccccc2c1
31 µM: MBC [1] | MIC [1] | MIC [9] | MFC [29]
2 µM: MBC [2] | MIC [6] | MFC [11] | MFC [12] | MIC [12] | MBC [13] | MIC [14] | MFC [16] | MIC [16] | MIC [17] | MBC [18] | MIC [18] | MFC [19] | MIC [19] | MIC [20] | MIC [23] | MIC [25] | MFC [26] | MIC [26] | MBC [28] | MIC [29]
63 µM: MIC [3] | MFC [7] | MIC [8] | MBC [15] | MIC [15] | MIC [21] | MFC [32] | MIC [32] | MIC [33]
250 µM: MBC [21] | MBC [27]
1 µM: MIC [10] | MIC [11]
7.8 µM: MIC [4] | MIC [7]
6 µM: IC50 [31]
0.5 µM: MIC [2] | MIC [5] | MIC [13] | MIC [22] | MIC [24] | MIC [28]
125 µM: MIC [27] | MIC [30]
